Assay results published in PubChem BioAssay (NCI).
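A five-concentration, 48-hour dose response in 96-well plates underlies each endpoint, interpolated linearly between surrounding concentrations. TGI: concentration producing complete growth inhibition.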

Experiments:
Assay in all cases: growth of human tumour cells (NCI), 48 h
HOP-92 NSCLC = system: HOP-92 NSCLC
SK-MEL-2 melanoma = system: SK-MEL-2 melanoma
HCT-15 colon = system: HCT-15 colon
SF-539 CNS = system: SF-539 CNS
PC-3 prostate = system: PC-3 prostate
OVCAR-8 ovarian = system: OVCAR-8 ovarian
SR leukemia = system: SR leukemia
OVCAR-3 ovarian = system: OVCAR-3 ovarian
LOX IMVI melanoma = system: LOX IMVI melanoma
A498 renal = system: A498 renal
DU-145 prostate = system: DU-145 prostate
A549 NSCLC = system: A549 NSCLC
MDA-N = system: MDA-N
HL-60(TB) leukemia = system: HL-60(TB) leukemia
EKVX NSCLC = system: EKVX NSCLC
T-47D breast = system: T-47D breast
NCI/ADR-RES ovarian = system: NCI/ADR-RES ovarian
HOP-62 NSCLC = system: HOP-62 NSCLC
SF-268 CNS = system: SF-268 CNS
HCC-2998 colon = system: HCC-2998 colon

Structure (SMILES) | TGI (HOP-92 NSCLC) [µM] | TGI (SK-MEL-2 melanoma) [µM] | TGI (HCT-15 colon) [µM] | TGI (SF-539 CNS) [µM] | TGI (PC-3 prostate) [µM] | TGI (OVCAR-8 ovarian) [µM] | TGI (SR leukemia) [µM] | TGI (OVCAR-3 ovarian) [µM] | TGI (LOX IMVI melanoma) [µM] | TGI (A498 renal) [µM] | TGI (DU-145 prostate) [µM] | TGI (A549 NSCLC) [µM] | TGI (MDA-N) [µM] | TGI (HL-60(TB) leukemia) [µM] | TGI (EKVX NSCLC) [µM] | TGI (T-47D breast) [µM] | TGI (NCI/ADR-RES ovarian) [µM] | TGI (HOP-62 NSCLC) [µM] | TGI (SF-268 CNS) [µM] | TGI (HCC-2998 colon) [µM]
NC(CCl)=NC1CN2CCC1CC2 (stereo not drawn) | > 100 | > 100 | > 100 | > 100 | > 100 | > 100 | > 100 | > 100 | > 100 | > 100 | > 100 | > 100 | > 100 | > 100 | > 100 | > 100 | > 100 | > 100 | > 100 | –
N#Cc1ccc(OC(=O)c2ccc(N=C(N)N)cc2)cc1 | > 100 | > 100 | > 100 | > 100 | > 100 | > 100 | > 100 | > 100 | > 100 | > 100 | > 100 | > 100 | > 100 | > 100 | > 100 | > 100 | > 100 | > 100 | > 100 | –
COc1cc(CCNC2=CC(=O)c3cccnc3C2=O)ccc1O | 19 | 3.46 | 2.58 | 3.04 | 18.7 | 12 | 12.2 | 5.51 | 1.41 | 7.6 | 3.11 | 3.27 | 0.308 | 9.43 | 11.5 | 35.1 | 11.5 | 2.86 | 7.7 | 3.58
c1ccc2c(c1)nc1n2CCNC1 | > 100 | > 100 | > 100 | > 100 | > 100 | > 100 | > 100 | > 100 | > 100 | > 100 | > 100 | > 100 | > 100 | > 100 | > 100 | > 100 | > 100 | > 100 | > 100 | > 100
Cc1c(C#N)c2nnn(-c3ccc([N+](=O)[O-])cc3)c(=O)n2c1-c1ccccc1 | 31.4 | 22 | 24.4 | 28.1 | 14.7 | 25.7 | 46.3 | 10 | 22 | 29.5 | 26.1 | > 100 | 31.3 | 60.3 | 32 | 14.3 | 65.5 | 19.8 | 32.4 | 20
OCCN1CN(c2nc(N3CN(CCO)C3)nc(N3CN(CCO)C3)n2)C1 | 53 | 41.9 | 46.7 | 35 | 49.8 | > 100 | > 100 | – | 33.5 | 96.2 | 54.7 | > 100 | 32.3 | 40.1 | 70.1 | 64.7 | > 100 | 39.2 | 48.3 | 41.7
CC(=O)c1cc2c(s1)C(=O)c1scc(C(C)=O)c1C2=O | 0.93 | 1.3 | 1.07 | 2.44 | 1.53 | 0.63 | 0.335 | 0.271 | 0.224 | 4 | 2.86 | 2.71 | 0.358 | – | 1.34 | 0.838 | 0.737 | 1.97 | 1.5 | 3.58
O=S(=O)(O)c1ccc2c(N=Nc3ccccc3)c(O)c(S(=O)(=O)O)cc2c1 | > 100 | > 100 | > 100 | > 100 | > 100 | > 100 | > 100 | > 100 | – | > 100 | > 100 | > 100 | > 100 | > 100 | > 100 | > 100 | > 100 | > 100 | > 100 | > 100
CC(=O)OC(CC(C)C)P1(=O)N(CC(C)(C)C)[C@@H]2CCCC[C@H]2N1CC(C)(C)C (stereo partly drawn) | 10.7 | 19.6 | 23.4 | 22.3 | 13.6 | 21.9 | 30.4 | 23.1 | 25 | 19.3 | 29.4 | 18 | 21.3 | 23.1 | 23.5 | 19.7 | 22.6 | 29.9 | 29.3 | 18.3
CCN(CC)c1ccc2c(c1)Oc1ccc(N(C(C)=O)c3ccccc3)cc1C21OC(=O)c2ccccc21 (stereo not drawn) | > 100 | > 100 | > 100 | > 100 | > 100 | > 100 | > 100 | > 100 | > 100 | > 100 | > 100 | > 100 | > 100 | 97.6 | > 100 | > 100 | > 100 | > 100 | > 100 | > 100
O=C1C(Cl)=C(Oc2ccc([N+](=O)[O-])cc2)C(=O)c2c(O)ccc(O)c21 | 56.6 | – | > 67.6 | > 100 | > 100 | > 100 | 16.1 | > 100 | – | > 100 | > 100 | > 100 | > 31.6 | 19.2 | > 100 | > 77.7 | > 100 | > 100 | > 100 | > 100
CCN(CC)c1ccc(/C=c2\nc(-c3ccccc3)n3c2nc2ccccc23)cc1 | > 100 | > 100 | > 100 | 11.4 | 8.7 | > 100 | > 100 | > 100 | 26.4 | > 100 | > 100 | > 100 | 24.6 | – | 35.4 | 5.84 | 26.6 | 68.6 | > 100 | 23.3
Cc1c(C)c2c(c(N)c1C#N)C(=O)N(OS(=O)(=O)c1ccccc1)C2=O | 35.2 | > 100 | 46 | 34.2 | > 100 | 38.6 | > 100 | 59.8 | 55.1 | > 100 | 64.3 | 32.1 | 80.8 | > 100 | 37.4 | 20 | 58.9 | – | > 100 | > 100
COc1ccc(OC)c(C(=O)/C=C/c2cc(O)c(O)cc2F)c1 | > 67 | 9.51 | 13.5 | 0.626 | 17.1 | 24.3 | 4.62 | 1.59 | 16.1 | 12.5 | 15.1 | > 82.7 | 0.534 | – | > 77.4 | > 100 | > 89.5 | 29.2 | > 44.9 | 1.98
O=C(O)C(F)(F)C(F)(F)C(F)(F)C(F)(F)C(=O)O | > 100 | > 100 | > 100 | – | > 100 | > 100 | > 100 | > 100 | > 100 | > 100 | > 100 | > 100 | > 100 | > 100 | > 100 | > 100 | > 100 | > 100 | > 100 | > 100
Cc1ccc(C(=O)Cc2nc3ncccc3[nH]c2=O)cc1 | 48.1 | > 100 | > 100 | 74.9 | > 100 | 53.1 | > 100 | > 100 | – | > 100 | > 100 | 26.7 | > 100 | > 100 | > 100 | > 100 | > 100 | 48.4 | 99.7 | > 100
N#CN=C1c2ccccc2C(=NC#N)c2cc(CO)ccc21 | 77 | > 100 | > 100 | > 100 | > 100 | > 100 | 43 | > 100 | > 100 | 74.4 | 69 | > 100 | > 100 | 60.7 | > 100 | 89.2 | 83.6 | > 100 | > 100 | –
CC(C)(C)OC(=O)NC1CCCC1C(O)(C1=CCCC1)C1=CCCC1 (stereo not drawn) | > 100 | > 100 | > 100 | – | > 100 | > 100 | > 100 | > 100 | > 100 | > 100 | > 100 | > 100 | > 100 | > 100 | – | > 100 | > 100 | > 100 | > 100 | > 100
C=C(C)[C@@H]1CC[C@]2(CO)CC[C@]3(C)[C@H](CC[C@@H]4[C@@]5(C)CC[C@H](O)C(C)(C)[C@@H]5CC[C@]43C)[C@@H]12 | 41 | – | > 100 | 33.8 | 84.3 | 60.1 | > 100 | 66.4 | 28.4 | 61.9 | > 100 | 26.9 | > 100 | > 100 | 87.6 | > 100 | > 100 | 42.1 | > 100 | –
